# Source: patent publication US20150274661A1, “INDOL-AMIDE COMPOUNDS AS BETA-AMYLOID INHBITORS” (Hoffmann-La Roche Inc., priority 2012, published 2015)
# System: Aβ42 secretion
# Experiment: Cellular γ-secretase assay (inhibition of Aβ42 secretion)
# Type: cell-based
# Details: Homo sapiens, 22 h, human neuroglioma H4 cells overexpressing human APP, 22 hours incubation
# Protocol: Cellular γ-Secretase Assay
# The compounds were investigated in accordance with the test given hereinafter.
# Human neuroglioma H4 cells overexpressing human APP were plated at 30,000 cells/well/200 μL in 96-well plates in IMDM media containing 10% FCS, […] Hygromycin B and incubated for 2 hours at 37° C., 5% CO2 prior to adding test compounds.
# Compounds for testing were dissolved in 100% Me2SO yielding in a 10 mM stock solution. Typically 12 μL of these solutions were further diluted in 1000 μL of IMDM media (w/o FCS). Subsequent 1:1 dilutions gave a ten point dose response curve. 100 μL of each dilution was added to the cells in 96-well plates. Appropriate controls using vehicle only and reference compound were applied to this assay. The final concentration of Me2SO was 0.4%.
# After incubation for 22 hours at 37° C., 5% CO2, 50 μL supernatant was transferred into round-bottom 96-well polypropylene plates for detection of Aβ42. 50 μL assay buffer (50 mM Tris/Cl, pH 7.4, 60 mM NaCl, 0.5% BSA, 1% TWEEN 20) was added to the wells followed by the addition of 100 μL of detection antibody (ruthenylated BAP15 0.0625 μg/mL in assay buffer). 50 μL of a premix of capture antibody (biotinylated 6E10 antibody, 1 μg/mL) and Streptavidin-coated magnetic beads (Dynal M-280, 0.125 mg/mL) were preincubated for 1 hour at room temperature before adding the assay plates. Assay plates were incubated on a shaker for 3 hours at room temperature and finally read in the Bioveris M8 Analyser according to the manufacturer's instructions (Bioveris).
# IC50 values for inhibition of Aβ42 secretion were calculated by nonlinear regression fit analysis using XLfit 4.0 software (IDBS).
row,EC50 [nM],SMILES
1,273,"CC(=O)N1CCCC(c2ccc3[nH]c(C(=O)Nc4cc(F)cc(F)c4)cc3c2)C1 (stereo not shown) [Example 52, 5-(1-Acetyl-piperidin-3-yl)-1H-indole-2-carboxylic acid (3,5-difluoro-phenyl)-amide]"
2,392,"O=C(Nc1cc(F)cc(F)c1)c1cc2cc(C3CCCN(S(=O)(=O)c4ccccc4)C3)ccc2[nH]1 (stereo not shown) [Example 53, 5-(1-Benzenesulfonyl-piperidin-3-yl)-1H-indole-2-carboxylic acid (3,5-difluoro-phenyl)-amide]"
3,403,"O=C(Nc1cc(F)cc(F)c1)c1cc2cc(C3CCCN(C(=O)C4CC4)C3)ccc2[nH]1 (stereo not shown) [Example 54, 5-(1-Cyclopropanecarbonyl-piperidin-3-yl)-1H-indole-2-carboxylic acid (3,5-difluoro-phenyl)-amide]"
4,449,"O=C(Nc1cc(F)cc(F)c1)c1cc2cc(C3CCCN(C(=O)c4ccccc4)C3)ccc2[nH]1 (stereo not shown) [Example 55, 5-(1-Benzoyl-piperidin-3-yl)-1H-indole-2-carboxylic acid (3,5-difluoro-phenyl)-amide]"
5,466,"O=C(Nc1cc(F)cc(F)c1)c1cc2cc(C3CCCN(S(=O)(=O)C4CC4)C3)ccc2[nH]1 (stereo not shown) [Example 56, 5-(1-Cyclopropanesulfonyl-piperidin-3-yl)-1H-indole-2-carboxylic acid (3,5-difluoro-phenyl)-amide]"
6,668,"COCC(=O)N1CCCC(c2ccc3[nH]c(C(=O)Nc4cc(F)cc(F)c4)cc3c2)C1 (stereo not shown) [Example 57, 5-[1-(2-Methoxy-acetyl)-piperidin-3-yl]-1H-indole-2-carboxylic acid (3,5-difluoro-phenyl)-amide]"
7,744,"Cn1cnc(S(=O)(=O)N2CCCC(c3ccc4[nH]c(C(=O)Nc5cc(F)cc(F)c5)cc4c3)C2)c1 (stereo not shown) [Example 58, 5-[1-(1-Methyl-1H-imidazole-4-sulfonyl)-piperidin-3-yl]-1H-indole-2-carboxylic acid (3,5-difluoro-phenyl)-amide]"
8,183,"CN1CCCC(c2ccc3[nH]c(C(=O)Nc4cc(F)cc(F)c4)cc3c2)C1 (stereo not shown) [Example 59, 5-(1-Methyl-piperidin-3-yl)-1H-indole-2-carboxylic acid (3,5-difluoro-phenyl)-amide]"
9,1380,"COCCN1CCCC(c2ccc3[nH]c(C(=O)Nc4cc(F)cc(F)c4)cc3c2)C1 (stereo not shown) [Example 60, 5-[1-(2-Methoxy-ethyl)-piperidin-3-yl]-1H-indole-2-carboxylic acid (3,5-difluoro-phenyl)-amide]"
10,354,"O=C(Nc1cc(F)cc(F)c1)c1cc2cc(C3CCCNC3)ccc2[nH]1 (stereo not shown) [Example 62, 5-Piperidin-3-yl-1H-indole-2-carboxylic acid (3,5-difluoro-phenyl)-amide]"
11,614,"CC(C)N1CCN(c2ccc3[nH]c(C(=O)Nc4ccc(F)c(F)c4)cc3c2)CC1 [Example 63, 5-(4-Isopropyl-piperazin-1-yl)-1H-indole-2-carboxylic acid (3,4-difluoro-phenyl)-amide]"
12,2950,"CC(C)N1CCC(Nc2ccc3[nH]c(C(=O)Nc4ccc(F)c(F)c4)cc3c2)CC1 [Example 65, 5-(1-Isopropyl-piperidin-4-ylamino)-1H-indole-2-carboxylic acid (3,4-difluoro-phenyl)-amide]"
13,727,"COCCN1CCCC(c2ccc3[nH]c(C(=O)Nc4cccc(F)c4)cc3c2)C1 (stereo not shown) [Example 66, N-(3-Fluorophenyl)-5-(1-(2-methoxyethyl)piperidin-3-yl)-1H-indole-2-carboxamide]"

# The remaining lines, values behind:
row,SMILES,EC50 [nM]
1,"COCCN1CCC(c2ccc3[nH]c(C(=O)Nc4ccc(F)cc4)cc3c2)CC1 [Example 37, 5-[1-(2-Methoxy-ethyl)-piperidin-4-yl]-1H-indole-2-carboxylic acid (4-fluoro-phenyl)-amide]",1430
2,"O=C(Nc1ccc(F)cc1)c1cc2cc(C3CCN(Cc4ccccc4)CC3)ccc2[nH]1 [Example 38, 5-(1-Benzyl-piperidin-4-yl)-1H-indole-2-carboxylic acid (4-fluoro-phenyl)-amide]",1290
3,"C=CCN1CCC(c2ccc3[nH]c(C(=O)Nc4ccc(F)cc4)cc3c2)CC1 [Example 39, 5-[1-Allyl-piperidin-4-yl]-1H-indole-2-carboxylic acid (4-fluoro-phenyl)-amide]",1320
4,"CCCN1CCC(c2ccc3[nH]c(C(=O)Nc4ccc(F)cc4)cc3c2)CC1 [Example 40, 5-[1-Propyl-piperidin-4-yl]-1H-indole-2-carboxylic acid (4-fluoro-phenyl)-amide]",1700
5,"COC(=O)N1CCC(c2ccc3[nH]c(C(=O)Nc4ccc(F)cc4)cc3c2)CC1 [Example 41, 4-[2-(4-Fluoro-phenylcarbamoyl)-1H-indol-5-yl]-piperidine-1-carboxylic acid methyl ester]",1910
6,"CCN1CCC(c2ccc3[nH]c(C(=O)Nc4ccc(F)cc4)cc3c2)CC1 [Example 42, 5-[1-Ethyl-piperidin-4-yl]-1H-indole-2-carboxylic acid (4-fluoro-phenyl)-amide]",1910
7,"COC(=O)CN1CCC(c2ccc3[nH]c(C(=O)Nc4ccc(F)cc4)cc3c2)CC1 [Example 43, {4-[2-(4-Fluoro-phenylcarbamoyl)-1H-indol-5-yl]-piperidin-1-yl}-acetic acid methyl ester]",2470
8,"CCC(=O)N1CCC(c2ccc3[nH]c(C(=O)Nc4ccc(F)cc4)cc3c2)CC1 [Example 44, 5-(1-Propionyl-piperidin-4-yl)-1H-indole-2-carboxylic acid (4-fluoro-phenyl)-amide]",4380
9,"O=C(Nc1ccc(F)cc1)c1cc2cc(C3CCN(CCc4ccccc4)CC3)ccc2[nH]1 [Example 45, 5-(1-Phenethyl-piperidin-4-yl)-1H-indole-2-carboxylic acid (4-fluoro-phenyl)-amide]",12900
10,"CC(C)N1CCCC(c2ccc3[nH]c(C(=O)Nc4cccc(F)c4)cc3c2)C1 (stereo not shown) [Example 46, 5-(1-Isopropyl-piperidin-3-yl)-1H-indole-2-carboxylic acid (3-fluoro-phenyl)-amide]",588
11,"CC(C)N1CCCC(c2ccc3[nH]c(C(=O)Nc4ccc(F)cc4)cc3c2)C1 (stereo not shown) [Example 47, 5-(1-Isopropyl-piperidin-3-yl)-1H-indole-2-carboxylic acid (4-fluoro-phenyl)-amide]",1150
12,"CC(C)N1CCC(c2ccc3[nH]c(C(=O)Nc4ccc(F)cc4)cc3c2)CC1 [Example 48, 5-(1-Isopropyl-piperidin-4-yl)-1H-indole-2-carboxylic acid (4-fluoro-phenyl)-amide]",2510
13,"CS(=O)(=O)N1CCCC(c2ccc3[nH]c(C(=O)Nc4cc(F)cc(F)c4)cc3c2)C1 (stereo not shown) [Example 49, 5-(1-Methanesulfonyl-piperidin-3-yl)-1H-indole-2-carboxylic acid (3,5-difluoro-phenyl)-amide]",148
14,"CC(C)S(=O)(=O)N1CCCC(c2ccc3[nH]c(C(=O)Nc4cc(F)cc(F)c4)cc3c2)C1 (stereo not shown) [Example 50, 5-[1-(Propane-2-sulfonyl)-piperidin-3-yl]-1H-indole-2-carboxylic acid (3,5-difluoro-phenyl)-amide]",202
15,"CC(C)C(=O)N1CCCC(c2ccc3[nH]c(C(=O)Nc4cc(F)cc(F)c4)cc3c2)C1 (stereo not shown) [Example 51, 5-(1-Isobutyryl-piperidin-3-yl)-1H-indole-2-carboxylic acid (3,5-difluoro-phenyl)-amide]",263
